Source: a melting point compilation (Tetko et al.; mined from patent text by program, amines drawn as free bases though some values may be those of a salt)

Row | Compound | melting point
1 | Cc1ccc(S(=O)(=O)NCCCN(CCN(CCCNS(=O)(=O)c2ccc(C)cc2)S(=O)(=O)c2ccc(C)cc2)S(=O)(=O)c2ccc(C)cc2)cc1 | 141 to 142 °C
2 | Cc1c(F)cccc1Cc1c(-c2ccccc2)c2ccccn2c1C(=O)N1CCN(C(=O)OC(C)(C)C)CC1 | 263 °C
3 | O=C(O)Cc1cn(-c2ccccc2)c2ccccc12 | 131 to 135 °C
4 | OC(c1ccccn1)c1cc2ccncc2[nH]1 (stereo not drawn) | 166 to 169 °C
5 | CC(C)n1nc(-c2c(NCc3ccccc3)nc(N)nc2-c2ccc(F)cc2)ccc1=O | 191 to 192 °C
6 | COc1ccccc1NC(=O)Nc1nc(Nc2ccccc2-c2ccccc2)nc(N(CCC(=O)O)Cc2ccc(F)c(F)c2)n1 | 115 to 120 °C
7 | CCCCCCCCCCCCCCCCCCOc1ccc2ccccc2c1O | 58 to 59 °C
8 | COP(=S)(OC)Oc1nsc(C)c1C#N | 52 °C
9 | COc1ccc(-c2nc(Sc3ncccn3)[nH]c2-c2ccc(OC)cc2)cc1 | 86 °C
10 | CC(=O)c1cccc(-c2ccc(O)cc2)c1 | 146 to 149 °C
11 | N#CCOc1ccccc1S(N)(=O)=O | 184 to 185 °C
12 | O=C(NN1CCN(CCc2c[nH]c3ccccc23)CC1)c1ccccc1 | 227 to 229 °C
13 | O=C(NCc1ccc(Cl)cc1)c1cnc2ccc(O)cc2c1O | 319 to 320 °C
14 | O=C(c1ccc2ccccc2c1)n1c2cc(O)c(O)cc2c2ccc(O)c(O)c21 | 266 to 270 °C
15 | Cc1cc2c(c(C=O)c1C)C(C)(C)CCC2(C)C | 74 to 80 °C
16 | CCCC1=C(C#N)C(c2ccccc2Cl)c2c(n[nH]c2CC(OC)OC)N1 (stereo not drawn) | 180 °C
17 | Cc1cc2nc(C)c(S(=O)Cc3ccccc3N(C)C)nc2cc1C (stereo not drawn) | 83 to 88 °C
18 | CC(CSc1nc(-c2ccc(F)cc2)c(-c2ccc(F)cc2)[nH]1)Sc1nc(-c2ccc(F)cc2)c(-c2ccc(F)cc2)[nH]1 (stereo not drawn) | 243 to 245 °C
19 | COc1ccc(-c2cc(=Nc3c(C)cc(C)cc3C)n(C)c(=O)n2CC(=O)O)cc1OC | 148 to 150 °C
20 | COc1ccc2c3c(c4cc(OC)c(OC)cc4c2c1)CC1CCCCN1C3 (stereo not drawn) | 193 to 195 °C
21 | O=C(O)c1ccccc1C(=O)c1cc(-c2ccccc2)c(O)c(-c2ccccc2)c1 | 234 °C

Row | Compound | melting point
22 | FC(F)(F)c1cc(Cl)c(-n2cc(C#CBr)c(C(F)(F)F)n2)c(Cl)c1 | 92 to 94 °C
23 | CNC(=S)C(OC)c1ccccn1 (stereo not drawn) | 104 to 105 °C
24 | Cc1cc2c(cc1Br)C(O)CC(C)(C)O2 (stereo not drawn) | 92 to 93 °C
25 | CCOC(=O)/C(C)=C/c1ccc(Br)cc1 | 82 °C
26 | CC(=O)SCCCCCCCCCCCOCCOCCOCCOc1ccc(OCc2ccccc2)cc1 | 55 to 57 °C
27 | COc1ccccc1C1(c2ccc(N(C)C)cc2)OC(=O)c2cc(N(C)C)ccc21 (stereo not drawn) | 215 to 216 °C
28 | CC(C)(C)c1cc(SCc2ccccc2C#N)cc(C(C)(C)C)c1O | 79 to 82 °C
29 | COC(=O)C1OC(I)C(OC(=O)C(C)(C)C)C(OC(=O)C(C)(C)C)C1OC(=O)C(C)(C)C (stereo not drawn) | 98 to 100 °C
30 | CC(C)(O)CC(=O)c1cc(C(C)(C)C)c(O)c(C(C)(C)C)c1 | 113 to 114 °C
31 | CC(C)Cn1c(=O)n(C)c(=O)c2c(SCCCO)c(C(O)c3cccc4ccccc34)sc21 (stereo not drawn) | 100 to 105 °C
32 | CN(C)C(N)=C(C#N)C(N)=S | 186 to 187 °C
33 | Cc1cc(-n2cncn2)cc(I)c1N | 151 to 154 °C
34 | CS(=O)(=O)Nc1cc2occc(=O)c2cc1Oc1ccc(F)cc1F | 182 to 183 °C
35 | CC(C)(Cc1cc([N+](=O)[O-])c(F)cc1Cl)C(=O)O | 102 to 104 °C
36 | CC(NC(=O)C(F)(F)F)C(=O)O (stereo not drawn) | 68 °C
37 | NC(=O)c1c(Cl)cc(Cl)c(O)c1Cl | 204 to 206 °C
38 | CCOC(=O)/C=C(\C)c1ccc(C2COc3c(C)c(C)c(NC(=O)CC(C)(C)C)c(C)c32)cc1 (stereo not drawn) | 179 to 180 °C
39 | C=CC[C@H]1Cc2c(OCOC)cccc2C(O)O1 (stereo partly drawn) | 72 to 74 °C
40 | COc1cc(Nc2c(C#N)cnc3cc(C#CCN4CCN(C)CC4)sc23)c(Cl)cc1Cl | 172 to 173 °C
41 | CCS(=O)(=O)Nc1c(C)c(C)c2c(c1C)C(c1ccc(C(C)C)cc1)CO2 (stereo not drawn) | 132 to 133 °C
42 | O=C(NCCc1ccc(Cl)cc1)c1ncccc1O | 91 to 93 °C

Next, values leading:

Row | melting point | Compound
43 | 128 to 129 °C | CCCCC(=O)Nc1c(C)c(C)c2c(c1C)C(c1ccc(C(C)C)cc1)CO2 (stereo not drawn)
44 | 169 to 172 °C | COc1ccccc1N(CN1C(=O)CN(C)C1=O)C(C)=O
45 | 48 to 50 °C | CCCCN(CCCC)C(=O)Nc1ccc(C)cc1C
46 | 255 to 256 °C | O=C(c1ccccc1)c1nc2cnc3ccc(F)cc3c2[nH]1
47 | 219 °C | O=[N+]([O-])c1ccc(-n2nc(CO)c3c2CCCC3)cc1
48 | 180 to 185 °C | O=C(O)c1ccc(NCCc2ccc(OCc3ccccc3)cc2)cc1
49 | 101 to 102 °C | Cc1nc(-c2ccc(-c3ccc(C(=O)Nc4cc(OCCN(C)C)ccc4Cl)cc3)c(C)c2)no1
50 | 88 °C | CCOC(=O)c1ccc(CCNS(=O)(=O)c2ccc(Cl)cc2)cc1
51 | 121 to 123 °C | CCOC(=O)C1CCCCN1C(=O)Cl (stereo not drawn)
52 | 118 °C | Nc1ncc(-c2ccc3c(c2)CCC(N2CCOCC2)CC3)c(N)n1 (stereo not drawn)
53 | 162 °C | C=Cc1c(C(=O)NC2CC2)nnn1-c1ccc(C(=O)NCC)cc1
54 | 134 to 135 °C | CCCN1C(=O)C2CC(c3ccc(N(C)C)cc3)(C2)C1=O
55 | 133 to 134 °C | Nc1cc(CO)cc(S(N)(=O)=O)c1Oc1cccc(C(F)(F)F)c1
56 | 100 °C | CCCCn1nc(SC2CCC(CC(=O)O)CC2)c(C(=O)O)c1Cc1cc2c(cc1Cl)OCO2 (stereo not drawn)
57 | 246 to 247 °C | COC(=O)c1cc(C(=O)NCC(=O)O)c2cc(Cc3ccc(F)cc3)cnc2c1O
58 | 215 to 220 °C | O=C1CC2(CCCC2)C(=O)N1c1cc(Cc2n[nH]c(=O)c3ccccc23)ccc1F
59 | 263 to 266 °C | O=c1[nH]c2ncc(-c3ccc(-c4nc[nH]n4)cc3)nc2n1CCC1CCOCC1
60 | 138 to 140 °C | CCCCCCCCCC(=O)Oc1ccc(/C=C2/C(=O)Nc3cc(OC)c(OC)cc32)cc1
61 | 153 °C | O=C(NCC12CC3CC(CC(Cl)(C3)C1)C2)c1ccccc1Cl

Row | melting point | Compound
62 | 122 to 124 °C | O=C1OC(CO)CN1c1ccccc1 (stereo not drawn)
63 | 248 to 250 °C | Cc1cccc(C)c1-n1cnc(N)nc1=O
64 | 208 to 210 °C | Cc1cccc(NC(=O)N(C)Cc2cccc3c2CN(C2CCC(=O)NC2=O)C3=O)c1 (stereo not drawn)
65 | 189 to 191 °C | O=C(O)Cc1ccc(N2CC3=C(CCCC3)C2=O)cc1
66 | 134 to 137 °C | Cc1ccccc1SCc1c(CCN(C)C)[nH]c2ccccc12
67 | 141 to 142 °C | CN(CCO)C(=O)c1cc2ccccc2[nH]1
68 | 111 to 112 °C | CCOc1ncc(C(C)=O)cc1C(=O)OC
69 | 129 to 130 °C | CCOc1cc(OCCCc2cn(-c3ccc(C(F)(F)F)cn3)nc2C)ccc1CCC(=O)O
70 | 215 to 216 °C | Cc1nc(-c2ccc(C(=O)N3CCN(S(=O)(=O)c4ccc5cc(Br)ccc5c4)CC3)cc2)c[nH]1
71 | 190 to 192 °C | CCOC(=O)c1ncn(-c2cc(C(=O)OC)c([N+](=O)[O-])cc2C(F)(F)F)n1
72 | 167 to 169 °C | CCOC(=O)C(C)(C)n1c(=O)[nH]c2ccc(F)cc2c1=O
73 | 186 to 188 °C | COc1ccc(-n2nc(CCC(=O)NCC(=O)O)cc2-c2ccc(Cl)cc2)cc1
74 | 147 to 148 °C | CC(C)(C)c1cc(C(c2ccc([N+](=O)[O-])cc2)N2CCCCC2)cc(C(C)(C)C)c1O (stereo not drawn)
75 | 189 to 190 °C | CN1CCc2cc(S(=O)(=O)Nc3cnc4cc(Cl)ccc4n3)ccc21
76 | 106 to 107 °C | CCO[PH](=O)Cc1cc(Oc2ccc(C(F)(F)F)cc2Cl)ccc1[N+](=O)[O-] (stereo not drawn)
77 | 218 °C | O=C1CNC(=O)[C@@H](CO)N1
78 | 243 to 244 °C | CN(C(=O)CCCOc1ccc2c(c1)CN1CC(=O)NC1=N2)C1CCCCC1
79 | 203 to 207 °C | CC(C)(C)OC(=O)N1CCC(c2nc3cc(-c4ccc(-n5cnnn5)cc4F)ccc3o2)CC1
80 | 176 to 178 °C | Cc1cccc(-c2nc(N)sc2-c2ccnc(-c3ccc(OCCN4CCCC4)cc3)c2)n1

Row | melting point | Compound
81 | 92 to 93.5 °C | C=C[C@@H]1CCC(=O)N1C(=O)[C@H](Cc1ccccc1)O[Si](C)(C)C(C)(C)C
82 | 203 to 205 °C | COc1ccc2c(c1)SC(C#N)=C(N)CO2
83 | 185 °C | O=[N+]([O-])c1cnc2ccc(Oc3ccc(CNc4ncncc4Cl)cc3)nn12
84 | 91 to 94 °C | CCCCCCCCCCCCCCOc1ccc(CC(=O)Nc2cccc(C(=O)OCC)c2)cc1
85 | 154 °C | CCN(CC)CCC1CCN(C(=O)N2c3ccccc3C(=O)Nc3cccnc32)CC1
86 | 86 to 87 °C | c1csc(-c2nc(COc3ccc(CCCn4ccnc4)cn3)co2)c1
87 | 158 to 159 °C | CCCCCCOc1ccc(C(=O)Nc2ccccc2Oc2cccc(OCc3nnn[nH]3)c2)cc1
88 | 140 to 141 °C | CC(C)(C)c1cc(OCCCCc2nnn[nH]2)cc(C(C)(C)C)c1
89 | 116 °C | CCOCN(c1ccccc1CN1CCC(c2ccccc2)OC1=O)S(=O)(=O)C(F)(F)F (stereo not drawn)
90 | 79.5 to 84 °C | CNc1nc(SCc2ccc(OC)cc2)nc(N2CCOCC2)c1N
91 | 247 to 249 °C | CS(=O)C1C=Nc2cc(Cl)ccc2C1=O (stereo not drawn)
92 | 170 °C | Cc1cc(N)nc(CCc2nc3cc(-c4ccc(C(F)(F)F)cc4)cnc3[nH]2)c1
93 | 83 to 86 °C | CCOC(=O)c1ccc(S(C)(=O)=O)c(-c2cc(C)no2)c1C
94 | 158 to 160 °C | CC(C)(Cc1cc2c(OCc3ccc4ccccc4n3)cccc2n1Cc1ccc(Cl)cc1)C(=O)O
95 | > 240 °C | COc1cc(OC)c(-c2nncn2CC(C)C)cc1C=CC(=O)c1ccc(S(N)(=O)=O)cc1
96 | 234 to 235 °C | COc1ccc2c(c1)sc1c(C(=O)Nc3nnn[nH]3)cnc(=O)n12
97 | 162 to 164 °C | FC(F)(F)c1ccccc1N=C1CCCc2cc3c(nc21)C(=Nc1ccccc1C(F)(F)F)CCC3
98 | 135 to 137 °C | COc1ccccc1N1CCN(CCn2c(O)nc3sc4c(c3c2=O)CCN(C(C)=O)C4)CC1
